Converted amounts (≈) assume the structure as drawn. Like-named read-outs stand apart in the source and are kept apart here.

Common to all, as to assay: MIC, CLSI broth microdilution
Holding throughout (format): cell-based

Test [1] concerns Acinetobacter baumannii ATCC 19606. Conditions: ATCC19606. As to the method: (§1) Gram-negative and Gram-positive bacterial strains used during the in vitro minimum inhibitory concentration (MIC) determination were obtained either from the American Type Culture Collection (ATCC) or from clinical specimens. All strains were characterized genotypically and the respective antibiotic resistance markers for each strain were identified.
(§2) Isolates were sub-cultured onto appropriate media and stocked in skim milk at −80° C. Following two subcultures from frozen stock, in vitro antimicrobial susceptibility testing was performed using the Clinical and Laboratory Standards Institute (CLSI) broth microdilution method. Briefly, fresh cultures were suspended in culture media to give a final stock inoculum size of 5×10^7 colony forming units per milliliter of broth (CFU/mL). […] 100 μL of the stock solutions were added to the first wells in a 96-well plate and were then diluted using a 2-fold dilution method to give a range of 32-0.025 μg/mL. 100 μL of the bacterial suspensions were then added to the 96-well plates to give a final working inoculum size of 5×10^5 CFU/mL. The final compound concentration range was 16-0.0125 μg/mL. […] MICs for comparator agents were determined using custom-designed, in-house prepared 96-well broth microdilution panels.

The subject of test [2] is Citrobacter freundii species complex OXA-181. As to the method:
as §1, §2

Test [3] deals with Enterobacter cloacae species complex NDM-1. As to the method: as §1, §2
Test [4] has as its system Escherichia coli ATCC 25922. Conditions: ATCC25922. As to the method:
as §1, §2

The next test concerns Escherichia coli CMY-2. The following applies: CMY2. As to the method:
as §1, §2

Test [5] concerns Escherichia coli CTX-M-15. The following applies: CTXM15. Here is the method: as §1, §2
Test [6] deals with Escherichia coli Empty pSMART plasmid. Here is the method:
as §1, §2

Test [7] relates to Escherichia coli Isogenic TEM-10. Here is the method:
as §1, §2

Test [8] concerns Escherichia coli Isogenic TEM-26. Here is the method: as §1, §2
A further test relates to Escherichia coli SHV-12. The following applies: SHV12. Here is the method:
as §1, §2

Test [9] has as its system Escherichia coli pSMART_Cfreundii_AmpC. As to the method: as §1, §2
In test [10] the test system is Escherichia coli pSMART_Ecloacae_AmpC. As to the method: as §1, §2
For test [11], the system named is Klebsiella aerogenes VIM-1, SHV-12. Here is the method: as §1, §2
The subject of test [12] is Klebsiella oxytoca KPC-2, TEM-1. Here is the method: as §1, §2
Test [13] relates to Klebsiella pneumoniae KPC-2. The following applies: KPC2. Here is the method: as §1, §2
In test [14] the test system is Klebsiella pneumoniae KPC-3. Here is the method: as §1, §2
In test [15] the test system is Klebsiella pneumoniae OXA-163, OXA-1_OXA-30, SHV-1, TEM-1. Here is the method:
as §1, §2

Test [16] concerns Klebsiella pneumoniae OXA-48, SHV-1. As to the method:
as §1, §2

The test system of test [17] is Klebsiella pneumoniae SHV-12. Here is the method:
as §1, §2

The subject of test [18] is Pseudomonas aeruginosa ATCC 27853. The following applies: ATCC27853. Here is the method:
as §1, §2

For test [19], the system named is Pseudomonas aeruginosa AmpC overexpressed. As to the method:
as §1, §2

Test [20] deals with Pseudomonas aeruginosa OprD negative. Here is the method:
as §1, §2

Test [21] deals with Serratia marcescens AmpC overexpressed. As to the method:
as §1, §2

Test [22] concerns Serratia marcescens SME-2. Conditions: SME2. As to the method:
as §1, §2

The mark [23] stands for this setting: Citrobacter freundii species complex, OXA-181, read-out: MIC.

As usually defined, the MIC is the lowest concentration found to suppress growth. Consider `Nc1nc(/C(=N/OC2(C(=O)O)CC3CCC(C2)O3)C(=O)N[C@H]2CON(C3(C(=O)O)C[C@H](N4Cc5cc(O)c(O)cc5C4=O)C(=O)O3)C2=O)cs1` (stereo partly drawn) [Cmpd 30, 3-({(Z)-[1-(2-amino-1,3-thiazol-4-yl)-2-({(4S)-2-[(4S)-2-carboxy-4-(5,6-dihydroxy-1-oxo-1,3-dihydro-2H-isoindol-2-yl)-5-oxooxolan-2-yl]-3-oxo-1,2-oxazolidin-4-yl}amino)-2-oxoethylidene]amino}oxy)-8-oxabicyclo[3.2.1]octane-3-carboxylic acid], for which the MIC in [1] worked out at 0.5 µg/mL (≈ 0.698 µM); in test [2] (setting [23]), 0.12 µg/mL (≈ 0.167 µM); in [3] it was 4 µg/mL (≈ 5.58 µM); in test [4] it was 1 µg/mL (≈ 1.4 µM); in the test with Escherichia coli CMY-2 it was 4 µg/mL (≈ 5.58 µM); in test [5], 8 µg/mL (≈ 11.2 µM). Further, the MIC in test [6] was found to be 1 µg/mL (≈ 1.4 µM); in test [7], 0.12 µg/mL (≈ 0.167 µM); in test [8], 0.5 µg/mL (≈ 0.698 µM); in the test on Escherichia coli SHV-12, 8 µg/mL (≈ 11.2 µM); in test [9], 0.25 µg/mL (≈ 0.349 µM); in test [10], 0.25 µg/mL (≈ 0.349 µM). The MIC amounted to 0.12 µg/mL (≈ 0.167 µM) in test [11]; 0.03 µg/mL (≈ 0.0419 µM) in test [12] (KPC-2, TEM-1, read-out: MIC); 0.03 µg/mL (≈ 0.0419 µM) in test [13]; 0.12 µg/mL (≈ 0.167 µM) in [14] (KPC3, KPC-3, read-out: MIC); 1 µg/mL (≈ 1.4 µM) in test [15]; 0.06 µg/mL (≈ 0.0837 µM) in [16]. For the same molecule, the MIC in [17] (SHV12, SHV-12, read-out: MIC) was determined as 0.25 µg/mL (≈ 0.349 µM); in test [18], 4 µg/mL (≈ 5.58 µM); in test [19], 4 µg/mL (≈ 5.58 µM); in [20], 1 µg/mL (≈ 1.4 µM); in test [21] it was 0.5 µg/mL (≈ 0.698 µM); in test [22], 0.5 µg/mL (≈ 0.698 µM).
On to `CC(C)(O/N=C(\C(=O)N[C@H]1CON(C2(C(=O)O)C[C@H](N3Cc4cc(O)c(O)cc4C3=O)C(=O)O2)C1=O)c1csc(N)n1)C(=O)O` (stereo partly drawn) [Cmpd 35, (4S)-2-[(4S)-4-{[(2Z)-2-(2-amino-1,3-thiazol-4-yl)-2-{[(2-carboxypropan-2-yl)oxy]imino}acetyl]amino}-3-oxo-1,2-oxazolidin-2-yl]-4-(5,6-dihydroxy-1-oxo-1,3-dihydro-2H-isoindol-2-yl)-5-oxooxolane-2-carboxylic acid], for which the MIC in test [1] is 0.25 µg/mL (≈ 0.385 µM); in [2] (setting [23]), 0.25 µg/mL (≈ 0.385 µM); in test [3], 1 µg/mL (≈ 1.54 µM); in test [4] it was 0.5 µg/mL (≈ 0.771 µM); against Escherichia coli CMY-2 it was 8 µg/mL (≈ 12.3 µM); in test [5] it was 1 µg/mL (≈ 1.54 µM). Moreover, the MIC in [6] stood at 0.06 µg/mL (≈ 0.0925 µM); in test [7], 0.06 µg/mL (≈ 0.0925 µM); in [8], 0.12 µg/mL (≈ 0.185 µM); in the test with Escherichia coli SHV-12, 1 µg/mL (≈ 1.54 µM); in [9], 0.5 µg/mL (≈ 0.771 µM); in test [10], 0.25 µg/mL (≈ 0.385 µM). The MIC worked out at 1 µg/mL (≈ 1.54 µM) in test [11]; 0.0149 µg/mL (≈ 0.023 µM) in test [12] (KPC-2, TEM-1, read-out: MIC); 0.12 µg/mL (≈ 0.185 µM) in test [13]; 0.25 µg/mL (≈ 0.385 µM) in [14] (KPC3, KPC-3, read-out: MIC); 0.5 µg/mL (≈ 0.771 µM) in test [15]; 0.03 µg/mL (≈ 0.0463 µM) in [16]. In addition, the MIC in test [17] (SHV12, SHV-12, read-out: MIC) amounted to 0.06 µg/mL (≈ 0.0925 µM); in [18], 0.5 µg/mL (≈ 0.771 µM); in test [19] it was 2 µg/mL (≈ 3.08 µM); in test [20], 0.5 µg/mL (≈ 0.771 µM); in test [21] it was 0.5 µg/mL (≈ 0.771 µM); in test [22] it was 0.25 µg/mL (≈ 0.385 µM).
In the case of `CC(C)(O/N=C(\C(=O)N[C@H]1CON(C2(C(=O)O)C[C@H](N3C(=O)c4cc(O)c(O)nc4C3=O)C(=O)O2)C1=O)c1csc(N)n1)C(=O)O` (stereo partly drawn) [Cmpd 36, (4S)-2-[(4S)-4-{[(2Z)-2-(2-amino-1,3-thiazol-4-yl)-2-{[(2-carboxypropan-2-yl)oxy]imino}acetyl]amino}-3-oxo-1,2-oxazolidin-2-yl]-4-(2,3-dihydroxy-5,7-dioxo-5,7-dihydro-6H-pyrrolo[3,4-b]pyridin-6-yl)-5-oxooxolane-2-carboxylic acid], the MIC in test [1] was determined as 0.12 µg/mL (≈ 0.181 µM); in test [2] (Citrobacter freundii) it was 0.0149 µg/mL (≈ 0.0225 µM); in test [3], 0.25 µg/mL (≈ 0.377 µM); in [4] it was 0.06 µg/mL (≈ 0.0904 µM); with Escherichia coli CMY-2, 1 µg/mL (≈ 1.51 µM); in test [5], 2 µg/mL (≈ 3.01 µM). For the same molecule, the MIC in [6] stood at 0.06 µg/mL (≈ 0.0904 µM); in test [7], 0.0149 µg/mL (≈ 0.0225 µM); in test [8], 0.0149 µg/mL (≈ 0.0225 µM); with Escherichia coli SHV-12, 1 µg/mL (≈ 1.51 µM); in test [9], 0.06 µg/mL (≈ 0.0904 µM); in [10] it was 0.03 µg/mL (≈ 0.0452 µM). In addition, the MIC amounted to 2 µg/mL (≈ 3.01 µM) in test [11]; 0.0149 µg/mL (≈ 0.0225 µM) in test [12]; 0.12 µg/mL (≈ 0.181 µM) in test [13]; 0.0149 µg/mL (≈ 0.0225 µM) in test [14] (KPC3); 0.06 µg/mL (≈ 0.0904 µM) in test [15]; 0.0149 µg/mL (≈ 0.0225 µM) in [16]. Besides, the MIC in test [17] (SHV12) is 0.0149 µg/mL (≈ 0.0225 µM); in test [18] it was 0.12 µg/mL (≈ 0.181 µM); in [19], 0.5 µg/mL (≈ 0.754 µM); in test [20], 0.12 µg/mL (≈ 0.181 µM); in [21], 0.06 µg/mL (≈ 0.0904 µM); in [22], 0.06 µg/mL (≈ 0.0904 µM).
With `CC(C)(O/N=C(\C(=O)N[C@H]1CON(C2(C(=O)O)C[C@@H](N3C(=O)c4cc(O)c(O)cc4C3=O)C(=O)O2)C1=O)c1csc(N)n1)C(=O)O` (stereo partly drawn) [Cmpd 40, (4R)-2-[(4S)-4-{[(2Z)-2-(2-amino-1,3-thiazol-4-yl)-2-{[(2-carboxypropan-2-yl)oxy]imino}acetyl]amino}-3-oxo-1,2-oxazolidin-2-yl]-4-(5,6-dihydroxy-1,3-dioxo-1,3-dihydro-2H-isoindol-2-yl)-5-oxooxolane-2-carboxylic acid], the MIC in test [1] was found to be 0.12 µg/mL (≈ 0.181 µM); in test [2] (setting [23]), 0.25 µg/mL (≈ 0.377 µM); in test [3], 2 µg/mL (≈ 3.02 µM); in [4] it was 0.06 µg/mL (≈ 0.0906 µM); with Escherichia coli CMY-2, 2 µg/mL (≈ 3.02 µM); in test [5] it was 2 µg/mL (≈ 3.02 µM). In addition, the MIC in test [6] is at most 0.015 µg/mL; in test [7] it was 0.03 µg/mL (≈ 0.0453 µM); in test [8], at most 0.015 µg/mL; in the test with Escherichia coli SHV-12, 1 µg/mL (≈ 1.51 µM); in [9] it was 0.12 µg/mL (≈ 0.181 µM); in test [10], 0.06 µg/mL (≈ 0.0906 µM). The MIC in test [11] was 0.25 µg/mL (≈ 0.377 µM); in test [12] (KPC-2, TEM-1, read-out: MIC), at most 0.015 µg/mL; in test [13], at most 0.015 µg/mL; in test [14] (KPC3, KPC-3, read-out: MIC) it was 0.03 µg/mL (≈ 0.0453 µM); in test [15] it was 0.06 µg/mL (≈ 0.0906 µM); in test [16] it was 0.03 µg/mL (≈ 0.0453 µM). Also, the MIC is at most 0.015 µg/mL in [17] (SHV12, SHV-12, read-out: MIC); 0.12 µg/mL (≈ 0.181 µM) in [18]; 8 µg/mL (≈ 12.1 µM) in [19]; 0.12 µg/mL (≈ 0.181 µM) in [20]; 0.12 µg/mL (≈ 0.181 µM) in test [21]; 0.06 µg/mL (≈ 0.0906 µM) in test [22].

Values taken from US11780832B2, “Lactivicin compounds, their preparation and use as antibacterial agents” (priority 2021, dated 2023).
